Data as given in PMC6784244 (Toxins, 2019).

Details: pH 7.4
With CC(C)[C@H]1OC(=O)[C@H](Cc2ccccc2)N(C)C(=O)[C@@H](C(C)C)OC(=O)[C@H](Cc2ccccc2)N(C)C(=O)[C@@H](C(C)C)OC(=O)[C@H](Cc2ccccc2)N(C)C1=O [BEA, Beauvericin] the “critical pressure of insertion, Cardiolipin” value (from here on “critical pressure of insertion”) was “--”. For CC[C@H](C)[C@H]1C(=O)O[C@H](C(C)C)C(=O)N(C)[C@@H]([C@@H](C)CC)C(=O)O[C@H](C(C)C)C(=O)N(C)[C@@H](C(C)C)C(=O)O[C@H](C(C)C)C(=O)N1C [ENN A1], the “critical pressure of insertion” value was 48.57 mN/m. For CC[C@H](C)[C@H]1C(=O)O[C@H](C(C)C)C(=O)N(C)[C@@H]([C@@H](C)CC)C(=O)O[C@H](C(C)C)C(=O)N(C)[C@@H]([C@@H](C)CC)C(=O)O[C@H](C(C)C)C(=O)N1C [ENN A], the “critical pressure of insertion” value was 49.72 mN/m. In the case of CC[C@H](C)[C@H]1C(=O)O[C@H](C(C)C)C(=O)N(C)[C@@H](C(C)C)C(=O)O[C@H](C(C)C)C(=O)N(C)[C@@H](C(C)C)C(=O)O[C@H](C(C)C)C(=O)N1C [ENN B1], the “critical pressure of insertion” value was 43.51 mN/m. For CC(C)[C@H]1C(=O)O[C@H](C(C)C)C(=O)N(C)[C@@H](C(C)C)C(=O)O[C@H](C(C)C)C(=O)N(C)[C@@H](C(C)C)C(=O)O[C@H](C(C)C)C(=O)N1C [ENN B], the “critical pressure of insertion” value was 33.29 mN/m.
